Data taken from US20240239806A1, “COMPOUNDS, COMPOSITIONS AND METHODS OF TREATING DISORDERS” (Chengdu Anticancer Bioscience, Ltd., priority 2021, published 2024).
Read-outs that look alike come from different tables or passages of the source.

How the values were obtained:
Format in all cases: cell-based
[1] = tested on: Hela; assay: MTT assay of cellular proliferation; conditions: Homo sapiens, 50% inhibition of cellular proliferation
Protocol: (§1) Six lung cancer cell lines (NCI-H23, NCI-H460, NCI-H596, NCI-H2170, Calu-6 and A549), two colon cancer cell lines (HCT116 and SW460), one breast cancer cell line MDA-MB-231, one gastric cancer cell line NCI-N87, one prostate cancer cell line DU145, one cervical cancer cell line Hela, and one glioblastoma cell line T98G were obtained from ATCC. The T2 HCC cell line was derived from a mouse liver cancer model initiated by a transgene of MYC. All cell lines were cultured in DMEM (Gibco, Cleveland, TN, USA) supplemented with 5% fetal bovine serum (Gibco), penicillin (100 U/mL)—streptomycin (100 μg/mL) (Gibco, Cat. No. 15140-122), 2 mM L-glutamine (Gibco, 200 mM solution, Cat. No. 25030081), and 1 mM sodium pyruvate (Gibco, 100 mM solution, Cat. No. 11360070) at 37° C. in a humidified incubator that was maintained at 5% CO2.
(§2) The MTT assay measures cellular metabolic activity as a proxy for cell viability and involves the conversion of the water-soluble yellow dye MTT [3-(4,5-dimethylthiazol-2-yl)-2,5-diphenyltetrazolium bromide] into an insoluble purple formazan by the action of mitochondrial reductase. Formazan is then solubilized and its concentration is determined by measuring the optical density (OD) value at a wavelength of 570 nm. The value is in proportional to the number of live cells with excellent linearity up to ˜10^6 cells per well. The MTT assay was used to determine the EC50 value, the concentration of a compound that leads to 50% inhibition of cellular proliferation. Briefly, cells were split when growing to the mid-Log phase. Cells in 100 μL of culture medium were seeded into each well of 96-well microplates and cultivated for 15-24 hours to reach a confluence of 20-30% and were then exposed to drugs at concentrations ranging from 1 nM to 30 μM. At the endpoint, 20 μL of a MTT stock solution in DMSO (5 mg/mL) was added to each well that contains 100 μL of DMEM. The microplates were left in the cell culture incubator for 3-4 h before subjected to solubilization and determination of formazan at A570 in a microplate reader (BioTek ELX808iu). […] Therefore, these compounds might hold a broad utility in the treatment of a large variety of human malignancies.

[2] = tested on: NCI-H23; assay: MTT assay of cellular proliferation; conditions: Homo sapiens, 50% inhibition of cellular proliferation
Protocol: as §1, §2

[3] = tested on: T2 HCC; assay: MTT assay of cellular proliferation; conditions: Mus musculus, 50% inhibition of cellular proliferation
Protocol: as §1, §2

[4] = tested on: HCT116; assay: MTT assay of cellular proliferation; conditions: Homo sapiens, HCT-116, 50% inhibition of cellular proliferation
Protocol: as §1, §2

[5] = tested on: MDA-MB-231; assay: MTT assay of cellular proliferation; conditions: Homo sapiens; MDA-MB-231, MTT, 50% inhibition of cellular proliferation
Protocol: as §1, §2

[6] = tested on: NCI-N87; assay: MTT assay of cellular proliferation; conditions: Homo sapiens, 50% inhibition of cellular proliferation
Protocol: as §1, §2

[7] = tested on: SW480; assay: MTT assay of cellular proliferation; conditions: Homo sapiens, 50% inhibition of cellular proliferation
Protocol: as §1, §2

[8] = tested on: A549; assay: MTT assay of cellular proliferation; conditions: Homo sapiens, 50% inhibition of cellular proliferation
Protocol: as §1, §2

[9] = tested on: RPEMYC^H2B-GFP cells; assay: Phenotypic screening assay (mitotic arrest, polyploidy); conditions: 1 nM to 30 μM; for IC50: read-out: Proliferative arrest (>50%)
In short: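 RPE cells expressing MYC and H2B-EGFP treated with compound at 1 nM–30 μM; mitotic index scored at 24 h and polyploidy (DNA content) at 48 h by automated imaging, with reads at 24, 48 or 72 h. Hits show transient mitotic arrest followed by polyploid accumulation.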

[10] = tested on: NCI-H23; assay: MECP in cancer cell line; conditions: Homo sapiens
Protocol: as §1, with “CO2. […]” for “CO2.”

[11] = tested on: NCI-N87; assay: MECP in cancer cell line; conditions: Homo sapiens
Protocol: as §1, with “CO2. […]” for “CO2.”

[12] = tested on: Hela; assay: MECP in cancer cell line; conditions: Homo sapiens
Protocol: as §1
(§3) We have previously developed a mechanism-informed phenotypic screening assay to identify novel antimitotic agents. Equipped with a prior understanding of the versatile functions of the chromosomal passenger protein (CPP) complex in orchestrating karyokinesis and cytokinesis, the screening assay is to score for phenotypes typically seen when the CPP complex is disabled. Specifically, the parameters for a positive hit are a temporary elevation of mitotic index (MI) at 24 hours of drug treatment and an accumulation of polyploid cells at 48 hours of drug treatment, indicative of mitotic arrest and cytokinetic failure respectively. These parameters exclude compounds that elicit only a prolonged arrest of cells in mitosis, a phenotype typically provoked by spindle toxins. The screening procedure is briefly summarized here. RPEMYC^H2B-GFP cells engineered to express a Histone 2B-EGFP fusion protein were passaged as batches of 96-well plates, 18-24 hours before exposure to the chemical compounds of the present disclosure at concentrations from 1 nM to 30 μM. At 24, 48 or 72 hours after initiation of treatment, cells were analyzed for either an arrest in mitosis or a change in DNA content by GE IN-Cell Analyzer 2000. As set forth in Table 2 below, a value of greater than or equal to 1 nM and less than or equal to 1.0 μM is marked “A”; a value greater than 1.00 μM and less than or equal to 10.0 μM is marked “B”; a value greater than 10.0 μM and less than or equal to 30.0 μM is marked “C”; and a value greater than 30.0 μM is marked “D.”

[13] = tested on: T2 HCC; assay: MECP in cancer cell line; conditions: Mus musculus
Protocol: as §1, §3

[14] = tested on: HCT116; assay: MECP in cancer cell line; conditions: Homo sapiens, HCT-116
Protocol: as §1, §3

[15] = tested on: MDA-MB-231; assay: MECP in cancer cell line; conditions: Homo sapiens
Protocol: as §1, §3

[16] = tested on: SW480; assay: MECP in cancer cell line; conditions: Homo sapiens
Protocol: as §1, §3

[17] = tested on: A549; assay: MECP in cancer cell line; conditions: Homo sapiens
Protocol: as §1, §3

[18] = read-out: Min. Effective conc. for Polyploidy (≥5%)

| SMILES | EC50 [1] | EC50 [2] | EC50 [3] | EC50 [4] | EC50 [5] | EC50 [6] | EC50 [7] | EC50 [8] | Min. Effective conc. for Polyploidy (≥5%) [9] | minimal effective concentration [9, 18] | minimal effective concentration ([9]; read-out: Mitotic Arrest (≥5%)) | IC50 [9] | minimal effective concentration [10] | minimal effective concentration [11] | minimal effective concentration [12] | minimal effective concentration [13] | minimal effective concentration [14] | minimal effective concentration [15] | minimal effective concentration [16] | minimal effective concentration [17] | also measured |
| --- | --- | --- | --- | --- | --- | --- | --- | --- | --- | --- | --- | --- | --- | --- | --- | --- | --- | --- | --- | --- | --- |
| COc1cc(Oc2ccnc3ccc(OC)cc23)cc(-n2cccn2)c1 [Compound 17, 6-methoxy-4(3-methoxy-5-(1H-pyrazol-1-yl)phenoxy)quinoline] | 1 to 1000 nM | 1 to 1000 nM | 1 to 1000 nM | 1 to 1000 nM | 1 to 1000 nM | 1 to 1000 nM | 1 to 1000 nM | 1 to 1000 nM | B (a value greater than 1.00 μM and less than or equal to 10.0 μM) | 0.001 to 1 µM | 0.001 to 1 µM | 1 to 1000 nM | 0.001 to 1 µM | 0.001 to 1 µM | 0.001 to 1 µM | 0.001 to 1 µM | 0.001 to 1 µM | 0.001 to 1 µM | 0.001 to 1 µM | 0.001 to 1 µM | Mitotic Arrest (≥5%) [9]: B (a value greater than 1.00 μM and less than or equal to 10.0 μM); Proliferative arrest (>50%) [9]: B (a value greater than 1.00 μM and less than or equal to 10.0 μM); Along with Cell Death ([9]; listed as 16): B (a value greater than 1.00 μM and less than or equal to 10.0 μM) |
| COc1cc(Oc2ccnc3cc(OC)c(C(N)=O)cc23)cc(-n2cccn2)c1 [Compound 30, 7-methoxy-4-(3-methoxy-5-(1H-pyrazol-1-yl)phenoxy)quinoline-6-carboxamide] | 1 to 1000 nM | 1 to 1000 nM | 1 to 1000 nM | 1 to 1000 nM | 1 to 1000 nM | 1 to 1000 nM | 1 to 1000 nM | 1 to 1000 nM | D (a value greater than 30.0 μM) | 0.001 to 1 µM | 0.001 to 1 µM | 1 to 1000 nM | 0.001 to 1 µM | 0.001 to 1 µM | 0.001 to 1 µM | 0.001 to 1 µM | 0.001 to 1 µM | 0.001 to 1 µM | 0.001 to 1 µM | 0.001 to 1 µM | Mitotic Arrest (≥5%) [9]: D (a value greater than 30.0 μM); Proliferative arrest (>50%) [9]: D (a value greater than 30.0 μM); Along with Cell Death ([9]; listed as 25): D (a value greater than 30.0 μM) |
| COC(=O)c1cc2c(Oc3cc(OC)cc(-n4cccn4)c3)ccnc2cc1OC [Compound 32, methyl 7-methoxy-4-(3-methoxy-5-(1H-pyrazol-1-yl)phenoxy)quinoline-6-carboxylate] | 1 to 1000 nM | 1 to 1000 nM | 1000 to 10000 nM | 1000 to 10000 nM | 1 to 1000 nM | 1000 to 10000 nM | 1000 to 10000 nM | 1000 to 10000 nM | – | 0.001 to 1 µM | 0.001 to 1 µM | 1 to 1000 nM | 0.001 to 1 µM | 1 to 10 µM | 0.001 to 1 µM | 0.001 to 1 µM | 0.001 to 1 µM | 1 to 10 µM | 0.001 to 1 µM | 0.001 to 1 µM | – |
| COc1cc(NC(C)=O)cc(Oc2ccnc3ccccc23)c1 [Compound 14, N-(3-methoxy-5-(quinolin-4-yloxy)phenyl)acetamide] | 1 to 1000 nM | 1 to 1000 nM | 1 to 1000 nM | 1 to 1000 nM | 1 to 1000 nM | 1 to 1000 nM | 1 to 1000 nM | 1 to 1000 nM | – | 0.001 to 1 µM | 0.001 to 1 µM | 1 to 1000 nM | 0.001 to 1 µM | 0.001 to 1 µM | 0.001 to 1 µM | 0.001 to 1 µM | 0.001 to 1 µM | 0.001 to 1 µM | 0.001 to 1 µM | 0.001 to 1 µM | – |
| COc1cc(NC(C)=O)cc(Oc2ccnc3ccc(Br)cc23)c1 [Compound 22, N-(3-((6-bromoquinolin-4-yl)oxy)-5-methoxyphenyl)acetamide] | 1 to 1000 nM | 1 to 1000 nM | 1 to 1000 nM | 1 to 1000 nM | 1 to 1000 nM | 1 to 1000 nM | 1 to 1000 nM | 1 to 1000 nM | – | 0.001 to 1 µM | 0.001 to 1 µM | 1 to 1000 nM | 0.001 to 1 µM | 0.001 to 1 µM | 0.001 to 1 µM | 0.001 to 1 µM | 0.001 to 1 µM | 0.001 to 1 µM | 0.001 to 1 µM | 0.001 to 1 µM | – |
| COc1cc(NC(C)=O)cc(Oc2ccnc3ccc(F)cc23)c1 [Compound 20, N-(3-((6-fluoroquinolin-4-yl)oxy)-5-methoxyphenyl)acetamide] | 1 to 1000 nM | 1 to 1000 nM | 1 to 1000 nM | 1 to 1000 nM | 1 to 1000 nM | 1 to 1000 nM | 1 to 1000 nM | 1 to 1000 nM | – | 0.001 to 1 µM | 0.001 to 1 µM | 1 to 1000 nM | 0.001 to 1 µM | 0.001 to 1 µM | 0.001 to 1 µM | 0.001 to 1 µM | 0.001 to 1 µM | 0.001 to 1 µM | 0.001 to 1 µM | 0.001 to 1 µM | – |
